{"source": "patent US20090053280A1", "about": "“COATING STENTS WITH CYCLIC RGD PEPTIDES OR MIMETICS” (priority 2007, published 2009)", "tested_on": "Human umbilical vein endothelial cells", "experiment": "Millicell migration assay of HUVECs towards a cyclic RGD peptide coated membrane", "type": "cell-based", "details": "2 hours, uncoated membranes", "protocol": "FIG. 7 (Example 5): Bar graph showing the results of migration assays utilizing specialized Millicell culture plates for in vitro testing. HUVECs were seeded onto the inside surface of Millicell membranes and semi-quantified following migration through a microporous membrane at the outside surface after two hours of incubation.\nMillicell culture plate inserts from Millipore were coated with cyclic RGD peptide at the outside surface of the microporous membrane only to stimulate haplotactic cell migration. Human umbilical vein endothelial cells (HUVCEs) were loaded into millicell chambers in completed medium in the presence or absence of paclitaxel or sirolimus, and subsequently incubated for 2 hours at 37 C.°.", "note": "“Also recorded” adds a separate entry of the source."}
{"smiles": "CC(=O)O[C@H]1C(=O)[C@@]2(C)[C@H]([C@H](OC(=O)c3ccccc3)[C@]3(O)C[C@H](OC(=O)[C@H](O)[C@@H](NC(=O)c4ccccc4)c4ccccc4)C(C)=C1C3(C)C)[C@]1(OC(C)=O)CO[C@@H]1C[C@@H]2O", "note": "[paclitaxel]", "values": [{"measurement": "Cell migration in the presence of the antiproliferative drug", "result": "marked decrease; also recorded: almost completely abolished"}]}
